# Measured values: paper PMC3826719, “Impact of Polymorphic Variants on the Molecular Pharmacology of the Two-Agonist Conformations of the Human β1-Adrenoceptor” (PLoS ONE, 2013)
# Read-outs that look alike come from different tables or passages of the source.
# Legend:
# [1] = molecular target: T1, human β1-adrenoceptor polymorphic variant Gly49/Gly389 (Homo sapiens, UniProt P08588, S49G); test: 3H-cAMP accumulation, Gly49/Gly389; format: cell-based; design: expressed in transfected cells; pcDNA3.1); conditions: for Emax: read-out: % isop (% isoprenaline maximal response); for EC50 / Log EC50 Site 2: biphasic cAMP response; for EC50: read-out: Log EC50 Site 1 (converted)
# Method: (§1) Cells were grown to confluence in clear plastic tissue culture treated 24-well plates and ^3H-cAMP accumulation performed as previously described. Briefly, cells pre-labelled with ^3H-adenine by incubation for 2 hours with 2 µCi/ml ^3H-adenine in serum-free media (0.5 ml per well). The cells were washed, then 1 ml serum-free media containing 1 mM IBMX (3-isobutyl-1-methylxanthine) was added to each well and the cells incubated for 15 minutes. Agonists (in 10 µl serum-free media) were added to each well and the plates incubated for 5 hours in order to maximise the responses. The assay was terminated by adding 50 µl concentrated HCl per well, the plates frozen, thawed and ^3H-cAMP separated from other ^3H-nucleotides by sequential Dowex and alumina column chromatography. […] Where pertussis toxin (PTX) was used, cells were incubated in the 24 well plates with PTX at 100 ng/ml for 24 hours before experimentation.
# (§2) The affinities of antagonists (KD values, Table 3) were calculated from the shift of the agonist concentration response curve in the presence of a fixed concentration of antagonist using equation 5: [drawing 5] (5) where DR (dose ratio) is the ratio of the agonist concentration required to stimulate an identical response in the presence and absence of a fixed concentration of antagonist [B].
# [2] = molecular target: T2, human wildtype β1-adrenoceptor (Ser49/Gly389) (Homo sapiens, UniProt P08588); test: 3H-cAMP accumulation, wildtype; format: cell-based; design: expressed in transfected cells; conditions: for Emax: read-out: % isop (% isoprenaline maximal response); for Log EC50 Site 2 / EC50: biphasic cAMP response; for EC50: read-out: Log EC50 Site 1 (converted)
# Method: as §1, §2
# [3] = molecular target: T3, human β1-adrenoceptor polymorphic variant Ser49/Arg389 (Homo sapiens, UniProt P08588, G389R); test: 3H-cAMP accumulation, Ser49/Arg389; format: cell-based; design: expressed in transfected cells; pcDNA3.1); conditions: for Emax: read-out: % isop (% isoprenaline maximal response); for Log EC50 Site 2 / EC50: biphasic cAMP response; for EC50: read-out: Log EC50 Site 1 (converted)
# Method: as §1, §2
# [4] = molecular target: T4, human adenosine A1 receptor (Homo sapiens, UniProt P30542); test: 3H-cAMP accumulation in CHO-A1 cells, pertussis toxin control; format: cell-based; conditions: 100 ng/ml for 24 hours, CHO cells expressing the human adenosine A1 receptor
# T4 construct: expressed in transfected cells
# T4 sequence (P30542 1-326): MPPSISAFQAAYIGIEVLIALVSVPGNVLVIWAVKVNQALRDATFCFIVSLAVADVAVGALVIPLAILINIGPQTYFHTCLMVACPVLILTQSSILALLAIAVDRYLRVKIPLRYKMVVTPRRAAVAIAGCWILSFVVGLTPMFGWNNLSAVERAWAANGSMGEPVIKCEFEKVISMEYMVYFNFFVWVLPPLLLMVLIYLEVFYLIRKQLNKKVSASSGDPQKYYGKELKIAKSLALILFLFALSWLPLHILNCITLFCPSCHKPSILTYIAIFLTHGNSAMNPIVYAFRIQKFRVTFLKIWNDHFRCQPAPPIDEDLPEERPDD
# [5] = test system: endogenous P2y2 receptors; test: 3H-inositol phosphate accumulation, positive controls; format: cell-based, Chinese Hamster; conditions: 100 µM
# Method: Cells were grown to confluence in clear plastic tissue culture treated 24-well plates containing ^3H-myo-inositol (4 µCi/ml). Cells were washed then incubated for 30 minutes in 1 ml of serum free media containing 20 mM LiCl (37°C, 5% CO2). Agonists (in 10 µl) were then added and the incubation continued for 1 hour. All reagents were then removed and 1 ml of cold (−20°C) methanol/0.12M HCl (1∶1, v/v) added to each well. […] Total ^3H-inositol phosphate levels were determined by liquid scintillation counting. 100 µM ATP and 100 µM UTP was used as positive controls.
# [6] = test system: ERK1/2 MAPKinase activation; test: Alphascreen Surefire MAPKinase (pERK1/2) assay, positive control; format: cell-based, Chinese Hamster; conditions: 1 µM, 30 minutes
# Method: Extracellular-signal-regulated kinases ERK1/2 activation was measured using a Surefire Alphascreen pERK1/2 kit as per manufacturer's instructions. Briefly, cells were grown to confluence in clear plastic tissue culture treated 96-well plates then serum starved by incubation in serum-free media for 24 hours before experimentation. Agonist in 20 µl was added to the well (1∶5 dilution in wells) and incubated for 5–60 minutes (37°C, 5% CO2). Reagents were then removed and 20 µl lysis buffer added to each well. Plates were frozen at −20°C overnight, thawed, and the assay then conducted as per manufacturer's instructions. After 2 hours in the dark, the plates were read on an Envision plate reader using standard Alphascreen settings. 1 µM phorbol ester was used as the positive control.
# [7] = molecular target: T2, human wildtype β1-adrenoceptor (Ser49/Gly389); test: cell-based; conditions: Log KD
# Method: (§3) The cells were washed twice with 200 µl 4°C phosphate buffered saline, 100 µl Microscint 20 was added to each well, and the plates counted on a Topcount at 21°C for 2 minutes per well.
# (§4) All data points were performed in triplicate and each 96-well plate also contained 6 determinations of total and non-specific binding.
# [8] = molecular target: T1, human β1-adrenoceptor polymorphic variant Gly49/Gly389; test: cell-based; conditions: Log KD
# Method: as §3, §4
# [9] = molecular target: T3, human β1-adrenoceptor polymorphic variant Ser49/Arg389; test: cell-based; conditions: Log KD
# Method: as §3, §4
# [10] = 3H-cAMP accumulation, main stable WT Ser49/Gly389 cell line (WT original), maximum defined by 10 µM isoprenaline
# [11] = cells expressing Gly49/Gly389 receptor
# [12] = cells expressing Ser49/Arg389 β1-receptors
# [13] = cells expressing wildtype Ser49/Gly389 receptor
# T3 sequence (P08588 whole entry G389R): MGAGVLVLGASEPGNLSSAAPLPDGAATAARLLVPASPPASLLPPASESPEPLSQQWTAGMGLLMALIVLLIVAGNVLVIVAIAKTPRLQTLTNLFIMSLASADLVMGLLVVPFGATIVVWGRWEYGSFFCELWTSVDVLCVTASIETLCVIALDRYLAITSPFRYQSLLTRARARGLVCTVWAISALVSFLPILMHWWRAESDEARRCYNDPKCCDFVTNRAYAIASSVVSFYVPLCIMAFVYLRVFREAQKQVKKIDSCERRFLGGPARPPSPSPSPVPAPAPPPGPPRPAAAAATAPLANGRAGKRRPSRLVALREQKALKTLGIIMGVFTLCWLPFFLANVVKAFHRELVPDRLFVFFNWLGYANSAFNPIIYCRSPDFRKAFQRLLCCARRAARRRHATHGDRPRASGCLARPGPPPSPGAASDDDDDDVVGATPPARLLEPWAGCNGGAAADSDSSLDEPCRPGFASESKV
# T1 sequence (P08588 whole entry S49G): as the sequence (P08588 whole entry G389R) above, with S49G, R389G counted along it
# T2 sequence (P08588 whole entry): as the sequence (P08588 whole entry G389R) above, with R389G counted along it
molecule,measurement,setting,value
pertussis toxin (PTX),Effect of pre-incubation on the cimaterol or CGP 12177 3H-cAMP responses,"[1]; 100 ng/ml for 24 hours, Gly49/Gly389 receptor",no effect
same,Effect of pre-incubation on the cimaterol or CGP 12177 3H-cAMP responses,"[2]; 100 ng/ml for 24 hours, WT receptor",no effect
same,Effect of pre-incubation on the cimaterol or CGP 12177 3H-cAMP responses,"[3]; 100 ng/ml for 24 hours, Ser49/Arg389 receptor",no effect
same,Effect of pre-incubation on Gi-coupled inhibition of 3H-cAMP accumulation in response to cyclopentyladenosine (CPA),[4],completely inhibited
NC[C@H](O)c1ccc(O)c(O)c1 [Noradrenaline],Emax,[1],99.1 ± 3.7%
same,% isop (% isoprenaline maximal response),[2]; [10],full agonists
same,Emax,[2],95.5 ± 2%
same,Emax,[3],96 ± 3%
CNC[C@H](O)c1ccc(O)c(O)c1 [Adrenaline],Emax,[1],95.9 ± 3.2%
same,% isop (% isoprenaline maximal response),[2]; [10],full agonists
same,Emax,[2],96.4 ± 2.1%
same,Emax,[3],91.6 ± 2.2%
Nc1ncnc2c1ncn2[C@@H]1O[C@H](COP(=O)(O)OP(=O)(O)OP(=O)(O)O)[C@@H](O)[C@H]1O [ATP],3H-inositol phosphate accumulation response,[5]; [11],2.77±0.40 fold over basal
same,3H-inositol phosphate accumulation response,[5]; [12],2.96±0.28 fold over basal
same,3H-inositol phosphate accumulation response,[5]; [13],2.18±0.17 fold over basal
CCCCCCCCCCCCCC(=O)O[C@@H]1[C@@H](C)[C@@]2(O)[C@@H](C=C(CO)C[C@]3(O)C(=O)C(C)=C[C@@H]23)[C@@H]2C(C)(C)[C@]12OC(C)=O [phorbol ester],MAPKinase maximum stimulation,[6]; Gly49/Gly389 receptor cells,12.6±3.8 fold over basal
same,MAPKinase maximum stimulation,[6]; Ser49/Arg389 receptor cells,7.4±1.4 fold over basal
same,MAPKinase maximum stimulation,[6]; wildtype receptor cells,11.9±1.6 fold over basal
CC(C)(Cc1c[nH]c2ccccc12)NCC(O)COc1ccccc1C#N (stereo not shown) [Bucindolol],Kd,"[7]; competition with 3H-CGP 12177, WT transiently transfected populations",1.32 nM
same,Kd,"[7]; competition with 3H-CGP 12177, additional stable WT cell line T3",1.45 nM
same,Kd,"[7]; competition with 3H-CGP 12177, additional stable WT cell line T88",0.355 nM
same,Kd,"[7]; competition with 3H-CGP 12177, whole cells, main stable CHO cell line WT (Ser49/Gly389)",0.275 nM
same,Kd,"[8]; competition with 3H-CGP 12177, Gly49/Gly389 transiently transfected populations",1.58 nM
same,Kd,"[8]; competition with 3H-CGP 12177, additional stable Gly49/Gly389 cell line V87",0.427 nM
same,Kd,"[8]; competition with 3H-CGP 12177, whole cells, main stable CHO cell line Gly49/Gly389",0.339 nM
same,% isoprenaline,"[1]; % maximum isoprenaline response for the overall biphasic response, main Gly49/Gly389 cell line",25.7±0.8%
same,% Site 1,"[1]; % of the response occurring at site 1, main Gly49/Gly389 cell line",51.5±2.4%
same,% Site 1,[1]; Gly49/Gly389 Cell line V6,54.0 ± 2.7%
same,% Site 1,[1]; Gly49/Gly389 Cell line V87,69.3 ± 7.5%
same,EC50,[1]; Gly49/Gly389 Cell line V6,0.282 nM
same,Log EC50 Site 2,[1]; Gly49/Gly389 Cell line V87,-7.34 ± 0.23
same,EC50,[1]; Gly49/Gly389 Cell line V87,0.309 nM
same,Log EC50 Site 2,[1]; main Gly49/Gly389 cell line,−7.45±0.11
same,EC50,[1]; main Gly49/Gly389 cell line,0.417 nM
same,% isoprenaline,"[1]; overall biphasic response, Gly49/Gly389 Cell line V6",27.5 ± 1.0%
same,% isoprenaline,"[1]; overall biphasic response, Gly49/Gly389 Cell line V87",22.8 ± 1.1%
same,% isoprenaline,"[2]; % maximum isoprenaline response for the overall biphasic response, main WT Ser49/Gly389 cell line",24.6±4.1%
same,% Site 1,"[2]; % of the response occurring at site 1, main WT Ser49/Gly389 cell line",59.8±2.8%
same,% Site 1,[2]; WT cell line T3,75.6 ± 4.5%
same,% Site 1,[2]; WT cell line T88,48.0 ± 4.2%
same,Log EC50 Site 2,[2]; WT cell line T3,-7.09 ± 0.15
same,EC50,[2]; WT cell line T3,0.708 nM
same,Log EC50 Site 2,[2]; WT cell line T88,-7.46 ± 0.09
same,EC50,[2]; WT cell line T88,0.234 nM
same,Log EC50 Site 2,[2]; main WT Ser49/Gly389 cell line,−7.53±0.05
same,EC50,[2]; main WT Ser49/Gly389 cell line,0.347 nM
same,% isoprenaline,"[2]; overall biphasic response, WT cell line T3",43.4 ± 2.0%
same,% isoprenaline,"[2]; overall biphasic response, WT cell line T88",23.6 ± 2.4%
same,% isoprenaline,"[3]; % maximum isoprenaline response for the overall biphasic response, main Ser49/Arg389 cell line",53.6±1.2%
same,% Site 1,"[3]; % of the response occurring at site 1, main Ser49/Arg389 cell line",80.4±2.6%
same,% Site 1,[3]; Ser49/Arg389 Cell line W81,47.6 ± 3.3%
same,% Site 1,[3]; Ser49/Arg389 Cell line W93,51.5 ± 4.0%
same,Log EC50 Site 2,[3]; Ser49/Arg389 Cell line W81,-6.22 ± 0.15
same,EC50,[3]; Ser49/Arg389 Cell line W81,0.724 nM
same,Log EC50 Site 2,[3]; Ser49/Arg389 Cell line W93,-7.50 ± 0.07
same,EC50,[3]; Ser49/Arg389 Cell line W93,0.589 nM
same,Log EC50 Site 2,[3]; main Ser49/Arg389 cell line,−6.98±0.19
same,EC50,[3]; main Ser49/Arg389 cell line,0.447 nM
same,% isoprenaline,"[3]; overall biphasic response, Ser49/Arg389 Cell line W81",34.8 ± 2.0%
same,% isoprenaline,"[3]; overall biphasic response, Ser49/Arg389 Cell line W93",32.8 ± 1.1%
same,Kd,"[9]; competition with 3H-CGP 12177, Ser49/Arg389 transiently transfected populations",1.82 nM
same,Kd,"[9]; competition with 3H-CGP 12177, additional stable Ser49/Arg389 cell line W81",0.275 nM
same,Kd,"[9]; competition with 3H-CGP 12177, additional stable Ser49/Arg389 cell line W93",0.646 nM
same,Kd,"[9]; competition with 3H-CGP 12177, whole cells, main stable CHO cell line Ser49/Arg389",0.347 nM
O=c1ccn([C@@H]2O[C@H](COP(=O)(O)OP(=O)(O)OP(=O)(O)O)[C@@H](O)[C@H]2O)c(=O)[nH]1 [UTP],3H-inositol phosphate accumulation response,[5]; [11],2.32±0.29 fold over basal
same,3H-inositol phosphate accumulation response,[5]; [12],2.63±0.40 fold over basal
same,3H-inositol phosphate accumulation response,[5]; [13],1.87±0.11 fold over basal
CC(C)NCC(O)COc1ccc(CC(N)=O)cc1 (stereo not shown) [Atenolol],Emax,"[1]; 3H-cAMP accumulation, main stable Gly49/Gly389 cell line (original), maximum defined by 10 µM isoprenaline",0%
same,Emax,[2]; [10],0%
same,Emax,"[3]; 3H-cAMP accumulation, main stable Ser49/Arg389 cell line (original), maximum defined by 10 µM isoprenaline",1.3 ± 0.2%
